# Data from patent US20240181007A1, “COMPOSITIONS AND METHODS FOR TREATING PULMONARY HYPERTENSION” (Acceleron Pharma Inc., priority 2021, published 2024).
# Tested on: Obese ZSF1-SU rats
# Assay: HFpEF induced PH rat model, obese ZSF1 rats challenged with semaxanib (Example 13)
# Assay type: in vivo
# Settings: 5 mpk s.c. twice weekly for 8 weeks from day 64 after semaxanib, relative to Obese ZSF1-SU/Veh
# Method: The effects of an ActRIIA-mFc fusion polypeptide (SEQ ID NO: 56) was examined in a rat model of left ventricular diastolic dysfunction (also referred to as HFpEF) group 2 (subgroup 2.2) pulmonary hypertension (PH). In this model, ZSF1-Lepr^faLepr^cp/Crl rats were challenged with semaxanib (SU5416) to induce HFpEF-PH.
# Twenty ZSF1 Lepr^faLepr^cp/Crl male […] (8 wks old) and ten lean rats were subcutaneously administered with a single dose of semaxanib (100 mg/kg) at day 0, and ten lean rats were included as normal control. Eight weeks after semaxanib (SU5416) treatment, twenty ZSF1 Lepr^faLepr^cp/Crl rats were randomized into two groups: i) ten rats were injected subcutaneously with vehicle control (phosphate buffered saline (PBS)), twice weekly for 8 weeks starting from day 64 after semaxanib treatment, “Obese ZSF1 Veh”; and ii) ten rats were injected subcutaneously with ActRIIA-mFc at a dose of 5 mpk twice weekly for 8 weeks starting from day 64 after semaxanib treatment, “Obese ZSF1 ActRIIA-mFc.” At the end of the study, echocardiography and pressure-volume catheter were performed to measure left and right ventricular remodeling and functional changes before animals were euthanized for heart and lung collection.
# Prior to euthanization, in vivo cardiac function was assessed by transthoracic echocardiography (Acuson P300, 18 MHz linear transducer: Siemens) in lightly anesthetized rats as described. Echocardiographic assessments were conducted at week 8 (before therapy with ActRIIA-mFc or vehicle) and week 15 (after therapy) in each rat. From left ventricle short axis view, M-mode echocardiogram was acquired to measure interventricular septal thickness at end diastole (IVSd), left ventricular posterior wall thickness at end diastole (LVPWd), left ventricular end diastolic diameter (LVEDD), and left ventricular end systolic diameter (LVESD). Left ventricular mass (LVM) was assessed by the equation: 1.05 [(LVEDD+LVPTD+IVSd)^3-LVEDD^3]. Early diastolic filling peak velocity (E), early diastolic mitral annular velocity (E′), and isovolumetric relaxation time (IVRT) were measured from the medial or septal wall at the mitral valve level from tissue Doppler image. LV diastolic function was assessed by measuring the E/E′ ratio and IVRT. Pulmonary arterial acceleration time (PAAT), a parameter of right ventricular function, was measured. Tricuspid annular plane systolic excursion (TAPSE), a parameter of global right ventricular function, was also measured. RV free wall thickness (RVFWT) was measured using M-mode in a modified parasternal long-axis view through the aortic valve. Pulmonary artery acceleration time (PAAT) was measured as the time from start to peak velocity of blood flow in the lumen of the main pulmonary artery distal to the pulmonary valve as obtained from the pulse-wave doppler recording.
# Sixteen weeks after semaxanib treatment, rats were anesthetized with ketamine (100 mg/kg) and xylazine (5 mg/kg) at the end of the experiment to evaluate cardiac and pulmonary hemodynamics. The respiration was supported by a small animal ventilator. Thoracotomy was made through 4-5 intercostal space, and the heart was exposed. […] Ventricular pressure and volume were calculated with LabChart 7 software. […] After finishing left ventricular measurements, the catheter was advanced to the aorta, arterial blood systolic and diastolic pressure was detected. […] Similarly, right atrial pressure was measured by moving the catheter from the right ventricle into atrium. […]
substance,measurement,setting,value
ActRIIA-mFc: ActRIIA-mFc fusion polypeptide (SEQ ID NO: 56); extracellular domain fused to murine IgG2a Fc domain with a linker,PAAT,FIG. 56,significantly increased PAAT
same,right ventricular systolic pressure (RVSP),FIG. 57,significantly reduced right ventricular systolic pressure
same,RVWT,FIG. 58,significantly reduced elevated RVWT
same,TAPSE,FIG. 59,increased TAPSE
same,Fulton index (RV/(LV+S)),FIG. 60,decreased Fulton index
